{
  "source": "paper PMC4949444",
  "about": "(Scientific Reports, 2016)",
  "key": {"[1]": {"test_system": "ERK, Akt and mTORC1 signaling pathways", "assay": "ERK, Akt and mTORC1 signalling in HiB5 cells (western blot)", "assay_type": "cell-based", "method": "Figure 3 Prosurvival effect of VCE-003.2 in hippocampal neural progenitor HiB5 cells. (a,b) HiB5 cells in proliferative and differentiation conditions respectively were incubated with increasing concentrations of VCE-003.2 and cell viability was assessed using the MTT test after 48 h. (c) Cell viability and ERK1/2 phosphorylation status (activation) was determined in VCE-003.2-treated cells in the absence or presence of GW9662 (5 μM). (d) VCE-003.2 time-dependent regulation of the ERK, Akt and mTORC1 signaling pathways were determined by incubation with anti-phospho-ERK, phospho-Akt and phospho-S6 antibodies. Loading control was performed with α-tubulin antibody. Representative western blots and densitometry quantification of three independent experiments are shown. Values are expressed as means ± S.D. *p < 0.05; **p < 0.01 vs. Vehicle; ^#p < 0.05 vs. VCE-003.2.\nCleared cell extracts were subjected to SDS-PAGE, transferred to polyvinylidene difluoride membranes, and incubated with the correspondent primary antibodies against phospho-ERK1/2 (Thr202/Tyr204; Cell Signaling Technology, Danvers, MA, USA), phospho-S6 ribosomal protein (Ser235/236) (Cell Signaling Technology), phospho-Akt (Ser473) (Cell Signaling Technology) and α-tubulin (Sigma-Aldrich) overnight at 4 °C. After washing membranes, horseradish peroxidase-conjugated secondary antibody was added and detected by chemiluminescence system. Loading controls were performed with an anti-α-tubulin antibody. Densitometric quantification of the luminograms was performed using a GS-700 Imaging densitometer (Bio-Rad, Hercules, CA) and Image J software."}, "[2]": {"test_system": "Human mesenchymal stem cells (MSC)", "assay": "Adipogenic differentiation of human mesenchymal stem cells", "assay_type": "cell-based", "excerpt": "Figure 2 Effect of VCE-003.2 on adipogenic differentiation. Human mesenchymal stem cells (MSC) were differentiated in adipogenic medium (AM) in the presence of RZG or […] VCE-003.2 and adipogenic markers were characterized. (a) Quantification of oil red (ORO) positive cells after 21 days of differentiation. (b) Representative images of accumulated fat vesicles stained with oil red (Bar size, 50 μm). (c) Gene expression of PPAR-γ2, LPL, CEBPA, ADIPOQ and FABP4 in MSCs differentiated during 18 days. Data represent the percentage of increase over AM considered as the 100% of adipogenic induction. Experiments were performed from three different human MSC preparations each one obtained from a different bone marrow sample.\nReina Sofia University Hospital review board."}},
  "data": [
    {"smiles": "CCCCCC1=C(NCC)C(=O)C(C/C=C(\\C)CCC=C(C)C)=C(O)C1=O", "note": "[VCE-003.2]", "values": [
      {"measurement": "ERK phosphorylation", "setting": "[1]", "value": "induction of extracellular signal-regulated kinase (ERK) phosphorylation"},
      {"measurement": "ERK phosphorylation in presence of GW9662", "setting": "[1]; + GW9662 5 μM", "value": "abolished in the presence of GW9662"},
      {"measurement": "activation of Akt, time course", "setting": "[1]; phospho-Akt", "value": "activated at a higher extent and shortly after VCE-003.2 incubation and lasted until 60 min after incubation"},
      {"measurement": "activation of ERK and mTORC1 signaling, time course", "setting": "[1]; phospho-ERK and phospho-S6", "value": "transient activation of ERK and mTORC1 signaling pathways between 15 and 30 min after stimulation"},
      {"measurement": "percentage of Oil Red O positive cells", "setting": "[2]; 1 and 2.5 μM vs 1 μM RZG, adipogenic medium, 21 days", "value": "never achieved the percentage of Oil Red O positive cells (ORO^+) induced by RZG"},
      {"measurement": "lipid droplets (morphological examination)", "setting": "[2]; compared to RZG", "value": "lipid droplets are less numerous and smaller"},
      {"measurement": "expression of adipogenic differentiation markers PPARγ, LPL, CEBPA, ADIPOQ, FABP4", "setting": "[2]; compared to cells treated with RZG", "value": "sensibly lower"}
    ]}
  ]
}
